Measured values taken from publication PMC7559834, “Functional and Pharmacological Comparison of Human, Mouse, and Rat Organic Cation Transporter 1 toward Drug and Pesticide Interaction” (International Journal of Molecular Sciences, 2020).
Read-outs that look alike come from different tables or passages of the source.

Legend:
[1] = molecular target: T1, human OCT1 (hOCT1) (Homo sapiens, UniProt O15245); experiment: inhibition of 3H-MPP uptake in transfected HEK293 cells; assay type: cell-based; parameters: gene SLC22A1; NM_003057.2, OCT1*1B allele, stably transfected HEK293 cells
T1 sequence (O15245 1-554): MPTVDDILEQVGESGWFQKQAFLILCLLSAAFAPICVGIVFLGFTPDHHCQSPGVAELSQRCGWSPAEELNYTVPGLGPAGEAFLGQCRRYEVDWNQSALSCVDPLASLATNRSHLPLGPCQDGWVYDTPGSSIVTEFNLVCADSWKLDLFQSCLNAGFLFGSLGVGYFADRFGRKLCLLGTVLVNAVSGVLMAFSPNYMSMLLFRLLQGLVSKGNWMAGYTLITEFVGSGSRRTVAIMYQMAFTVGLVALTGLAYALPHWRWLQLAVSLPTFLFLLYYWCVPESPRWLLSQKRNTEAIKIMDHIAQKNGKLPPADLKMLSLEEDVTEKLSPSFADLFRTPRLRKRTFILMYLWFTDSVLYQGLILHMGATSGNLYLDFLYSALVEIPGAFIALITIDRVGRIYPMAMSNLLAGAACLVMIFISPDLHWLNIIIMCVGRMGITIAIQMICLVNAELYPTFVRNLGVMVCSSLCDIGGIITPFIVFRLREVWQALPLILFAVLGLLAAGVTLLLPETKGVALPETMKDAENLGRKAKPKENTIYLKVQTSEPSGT

[2] = molecular target: T2, rat Oct1 (rOct1) (Rattus norvegicus, UniProt Q63089); experiment: as above; assay type: cell-based
T2 construct: gene Slc22a1; NM_012697.1, stably transfected HEK293 cells
T2 sequence (Q63089 1-556): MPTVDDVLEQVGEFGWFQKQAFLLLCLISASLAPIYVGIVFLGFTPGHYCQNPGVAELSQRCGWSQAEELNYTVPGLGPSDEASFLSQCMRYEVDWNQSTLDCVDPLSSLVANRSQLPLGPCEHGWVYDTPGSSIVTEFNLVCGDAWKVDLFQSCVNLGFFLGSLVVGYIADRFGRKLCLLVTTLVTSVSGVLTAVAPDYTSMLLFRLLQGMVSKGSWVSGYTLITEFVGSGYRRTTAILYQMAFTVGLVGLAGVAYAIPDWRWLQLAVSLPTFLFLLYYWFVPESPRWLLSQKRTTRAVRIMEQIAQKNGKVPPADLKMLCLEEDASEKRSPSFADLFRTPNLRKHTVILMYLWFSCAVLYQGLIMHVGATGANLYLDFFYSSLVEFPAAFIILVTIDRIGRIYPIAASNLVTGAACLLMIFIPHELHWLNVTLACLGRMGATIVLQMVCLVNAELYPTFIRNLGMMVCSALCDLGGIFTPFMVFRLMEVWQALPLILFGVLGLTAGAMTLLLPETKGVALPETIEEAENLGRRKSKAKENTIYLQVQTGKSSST

[3] = molecular target: T3, mouse Oct1 (mOct1) (Mus musculus, UniProt O08966); experiment: as above; assay type: cell-based
T3 construct: gene Slc22a1; NM_009202.5, stably transfected HEK293 cells
T3 sequence (O08966 1-556): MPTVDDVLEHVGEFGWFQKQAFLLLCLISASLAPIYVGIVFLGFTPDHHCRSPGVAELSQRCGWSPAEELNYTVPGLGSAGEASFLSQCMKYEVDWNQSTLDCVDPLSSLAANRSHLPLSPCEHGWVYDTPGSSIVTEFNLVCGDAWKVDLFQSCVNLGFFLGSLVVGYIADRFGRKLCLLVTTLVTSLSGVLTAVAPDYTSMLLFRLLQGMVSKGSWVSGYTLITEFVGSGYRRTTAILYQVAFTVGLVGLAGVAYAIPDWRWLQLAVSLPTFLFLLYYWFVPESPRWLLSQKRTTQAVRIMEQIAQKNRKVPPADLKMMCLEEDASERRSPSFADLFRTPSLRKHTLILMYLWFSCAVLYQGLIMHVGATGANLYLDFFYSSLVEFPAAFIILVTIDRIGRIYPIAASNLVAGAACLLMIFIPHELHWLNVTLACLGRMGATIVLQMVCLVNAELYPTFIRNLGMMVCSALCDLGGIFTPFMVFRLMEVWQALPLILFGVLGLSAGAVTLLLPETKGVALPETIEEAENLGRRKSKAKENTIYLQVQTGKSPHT

[4] = molecular target: T4, hMATE1 (Homo sapiens, UniProt Q96FL8); experiment: inhibition of […]-metformin uptake in transfected HEK293 cells, % at […]; assay type: cell-based; settings: read-out: Inhibitory Effects (%) / hMATE1 / 10 μM
T4 construct: gene SLC47A1; NM_018242.2, stably transfected HEK293 cells
T4 sequence (Q96FL8 1-570): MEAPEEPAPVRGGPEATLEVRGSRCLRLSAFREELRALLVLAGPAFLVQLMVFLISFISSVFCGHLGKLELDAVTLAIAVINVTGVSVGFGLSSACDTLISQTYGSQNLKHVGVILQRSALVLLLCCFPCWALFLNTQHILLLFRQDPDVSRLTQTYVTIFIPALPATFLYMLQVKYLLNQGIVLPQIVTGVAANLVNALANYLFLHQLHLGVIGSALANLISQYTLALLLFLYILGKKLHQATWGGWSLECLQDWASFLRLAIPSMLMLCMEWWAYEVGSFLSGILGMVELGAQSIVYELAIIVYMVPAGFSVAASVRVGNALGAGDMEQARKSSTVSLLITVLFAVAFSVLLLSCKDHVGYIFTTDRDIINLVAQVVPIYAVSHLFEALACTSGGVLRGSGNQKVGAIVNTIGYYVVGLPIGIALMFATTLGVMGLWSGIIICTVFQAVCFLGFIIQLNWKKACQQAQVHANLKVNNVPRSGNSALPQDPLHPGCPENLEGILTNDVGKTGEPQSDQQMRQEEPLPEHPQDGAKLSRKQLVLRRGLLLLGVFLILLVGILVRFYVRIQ

[5] = molecular target: T1, human OCT1 (hOCT1); experiment: cell-based; parameters: gene SLC22A1; settings: HEK293, read-out: Inhibitory Effects (%) / hOCT1 / 10 μM
[6] = inhibition of 3H-MPP uptake in transfected HEK293 cells, % at […]; assay type: cell-based, Mus musculus; settings: read-out: Inhibitory Effects (%) / hOCT1 / 100 μM
[7] = substrate: C[n+]1ccc(-c2ccccc2)cc1; experiment: concentration-dependent 3H-MPP uptake, Km; assay type: cell-based, Rattus norvegicus
[8] = substrate: C[n+]1ccc(-c2ccccc2)cc1; experiment: concentration-dependent 3H-MPP uptake, Km; assay type: cell-based, Mus musculus
[9] = substrate: C[n+]1ccc(-c2ccccc2)cc1; experiment: concentration-dependent 3H-MPP uptake, Km; assay type: cell-based, Homo sapiens

Molecule CCN1/C(=C/c2ccc3ccccc3[n+]2CC)C=Cc2ccccc21 [decynium22] has an IC50 [1] of 12.1 ± 0.8 µM, an IC50 [2] of 10.5 ± 0.4 µM and an IC50 [3] of 5.3 ± 0.4 µM. The inhibition at 10 µM [4] was 76%.

Work on Clc1cccc(Cl)c1N=C1NCCN1 [Clonidine] yielded an inhibition at 10 µM [5] of 73%.

Work on C=CCOC(Cn1ccnc1)c1ccc(Cl)cc1Cl (stereo not shown) [Imazalil] yielded an inhibition at 10 µM [6] of 84%.

CC(=O)N1CCN(c2ccc(OCC3COC(Cn4ccnc4)(c4ccc(Cl)cc4Cl)O3)cc2)CC1 (stereo not shown) [Ketoconazol] gave an inhibition at 10 µM [4] of 87%.

B1: rat Oct1 (rOct1) (Rattus norvegicus) (protein)
chain: MPTVDDVLEQVGEFGWFQKQAFLLLCLISASLAPIYVGIVFLGFTPGHYCQNPGVAELSQRCGWSQAEELNYTVPGLGPSDEASFLSQCMRYEVDWNQSTLDCVDPLSSLVANRSQLPLGPCEHGWVYDTPGSSIVTEFNLVCGDAWKVDLFQSCVNLGFFLGSLVVGYIADRFGRKLCLLVTTLVTSVSGVLTAVAPDYTSMLLFRLLQGMVSKGSWVSGYTLITEFVGSGYRRTTAILYQMAFTVGLVGLAGVAYAIPDWRWLQLAVSLPTFLFLLYYWFVPESPRWLLSQKRTTRAVRIMEQIAQKNGKVPPADLKMLCLEEDASEKRSPSFADLFRTPNLRKHTVILMYLWFSCAVLYQGLIMHVGATGANLYLDFFYSSLVEFPAAFIILVTIDRIGRIYPIAASNLVTGAACLLMIFIPHELHWLNVTLACLGRMGATIVLQMVCLVNAELYPTFIRNLGMMVCSALCDLGGIFTPFMVFRLMEVWQALPLILFGVLGLTAGAMTLLLPETKGVALPETIEEAENLGRRKSKAKENTIYLQVQTGKSSST
notes: NM_012697.1, stably transfected HEK293 cells
B1 showed a Km [7] of 57 ± 5 µM.

B2: mouse Oct1 (mOct1) (Mus musculus) (protein)
chain: MPTVDDVLEHVGEFGWFQKQAFLLLCLISASLAPIYVGIVFLGFTPDHHCRSPGVAELSQRCGWSPAEELNYTVPGLGSAGEASFLSQCMKYEVDWNQSTLDCVDPLSSLAANRSHLPLSPCEHGWVYDTPGSSIVTEFNLVCGDAWKVDLFQSCVNLGFFLGSLVVGYIADRFGRKLCLLVTTLVTSLSGVLTAVAPDYTSMLLFRLLQGMVSKGSWVSGYTLITEFVGSGYRRTTAILYQVAFTVGLVGLAGVAYAIPDWRWLQLAVSLPTFLFLLYYWFVPESPRWLLSQKRTTQAVRIMEQIAQKNRKVPPADLKMMCLEEDASERRSPSFADLFRTPSLRKHTLILMYLWFSCAVLYQGLIMHVGATGANLYLDFFYSSLVEFPAAFIILVTIDRIGRIYPIAASNLVAGAACLLMIFIPHELHWLNVTLACLGRMGATIVLQMVCLVNAELYPTFIRNLGMMVCSALCDLGGIFTPFMVFRLMEVWQALPLILFGVLGLSAGAVTLLLPETKGVALPETIEEAENLGRRKSKAKENTIYLQVQTGKSPHT
notes: NM_009202.5, stably transfected HEK293 cells
With B2 the Km [8] was 36 ± 13 µM.

B3: human OCT1 (hOCT1) (Homo sapiens) (protein)
chain: MPTVDDILEQVGESGWFQKQAFLILCLLSAAFAPICVGIVFLGFTPDHHCQSPGVAELSQRCGWSPAEELNYTVPGLGPAGEAFLGQCRRYEVDWNQSALSCVDPLASLATNRSHLPLGPCQDGWVYDTPGSSIVTEFNLVCADSWKLDLFQSCLNAGFLFGSLGVGYFADRFGRKLCLLGTVLVNAVSGVLMAFSPNYMSMLLFRLLQGLVSKGNWMAGYTLITEFVGSGSRRTVAIMYQMAFTVGLVALTGLAYALPHWRWLQLAVSLPTFLFLLYYWCVPESPRWLLSQKRNTEAIKIMDHIAQKNGKLPPADLKMLSLEEDVTEKLSPSFADLFRTPRLRKRTFILMYLWFTDSVLYQGLILHMGATSGNLYLDFLYSALVEIPGAFIALITIDRVGRIYPMAMSNLLAGAACLVMIFISPDLHWLNIIIMCVGRMGITIAIQMICLVNAELYPTFVRNLGVMVCSSLCDIGGIITPFIVFRLREVWQALPLILFAVLGLLAAGVTLLLPETKGVALPETMKDAENLGRKAKPKENTIYLKVQTSEPSGT
notes: NM_003057.2, OCT1*1B allele, stably transfected HEK293 cells
B3 showed a Km [9] of 73 ± 7 µM.
